“Also recorded” adds a separate entry of the source. Where two headings read alike, the source gives them in different places.
Tests used:
φX174 Form I DNA = assay: φX174 supercoiled DNA cleavage, agarose gel; type: biochemical; details: for DNA cleavage potency: pH 8.5, 1000 and 100 μM
Protocol: The ethereal solution of Compound 40 produced by the LiAlH4 reduction of Compound 21 (39 mg, 0.10 mmol) was evaporated in vacuo to dryness and the residue dissolved in THF (4 mL) to give a 25 mM solution of Compound 40, assuming complete conversion of Compound 21. […]
Thus, a vial containing a 50 micromolar per base pair solution […] of the same buffer solution and 2.0 microliters of a 5.0 millimolar ethanol solution of Compound 40.
[…] A 2.0 microliter portion of glycerol loading buffer solution containing bromothymol blue indicator was added to each vial. A 10 microliter aliquot was then drawn from each. Gel electrophoresis analysis of the aliquots was performed using a 1.0 percent agarose gel with ethidium bromide run at 115 volts for 1 hour. DNA cleavage was indicated by the formation of nicked relaxed circular DNA (form II) or linearized DNA (form III), which was detected by visual inspection of the gel under 310 nanometer ultraviolet light using ethidium bromide.

cancer cell lines = assay: cells; type: cell-based; details: Average data obtained from 5~10 cell lines; read-out: IC50 (average)
Protocol: (§1) In addition to the screening already discussed, several of the before-described compounds and chimeras were screened against several or all of a panel of ten to twenty-five cancerous cell lines as target cells and seven "normal" cell preparations. This screening utilized a sulforhodamine B cytotoxidity assay as discussed below.
SULFORHODAMINE B CYTOTOXICITY ASSAY
a. Stock drug solutions were prepared by dissolving drug in the appropriate solvent (determined during chemical characterization studies) and sterile filtering the drug-solvent solution through a sterile 0.2μ filter unit. An aliquot was taken from each filtered drug solution and the O.D. was measured to determine the drug concentration.
f. Incubate (37° C., 5-10 percent CO2 in humidified incubator) plates for a total of 72 hours. Check plates at 24 hour intervals microscopically for signs of cytotoxicity.
(§2) IC50 values; i.e., the concentration of Compound required to kill one-half of the treated cells, were then calculated.
All other cells or cell lines were obtained from the American Type Culture Collection (ATCC) (all except CHO cells are human or mouse cancer cell lines as described by the ATC).
Tables 1 and 2 herein below provide average IC50 data from five to all ten of the above cancer cells lines for fused ring enediyne compounds disclosed herein. Those tables provide a generic structure and a description of the R group of that generic structure for each compound. Compound numbers as noted hereinbefore are also provided. Table 3 contains data for two fused-ring enediyne compounds (Compounds 47 and 120) as well as data for six chimers. Table 4 contains cancer cell and noraml cell cytotoxicity data for one select fused ring enediyne, Compound 153 against a number of "normal" cell preparations and tumor cell lines. Table 5 contains cancer cell and normal cell cytotoxicity data for another fused ring enediyne, Compound 250 against a similar panel of cells.

Chemical stability = type: physicochemical
[1] = system: MOLT-4 (Leukemia) cell line; assay: cells; type: cell-based
Protocol: as §1, §2

[2] = system: NHDF normal human dermal fibroblasts; assay: in vitro; type: cell-based; details: for IC50: NHDF, read-out: Range of Average IC50 Values, NHDF
Protocol: as §1, §2
NHDF Normal human dermal fibroblasts

SK-Mel-28 melanoma cells = assay: Sulforhodamine B cytotoxicity, SK-Mel-28; type: cell-based
Protocol: as §1, §2

[3] = system: Ovcar-3 ovarian carcinoma cells; assay: Sulforhodamine B cytotoxicity, Ovcar-3; type: cell-based; details: read-out: Cytotoxicity (IC50)
Protocol: as §1, §2

[4] = system: HT-29 colon carcinoma cells; assay: Sulforhodamine B cytotoxicity, HT-29; type: cell-based; details: Table 7, HT-29, read-out: Cytotoxicity (IC50)
Protocol: as §1, §2

[5] = system: MCF-7 breast carcinoma cells; assay: Sulforhodamine B cytotoxicity, MCF-7; type: cell-based; details: Table 7, MCF-7, read-out: Cytotoxicity (IC50)
Protocol: as §1, §2

[6] = system: UCLA P-3 non-small cell lung carcinoma cells; assay: Sulforhodamine B cytotoxicity, UCLA-P3; type: cell-based, human; details: read-out: Cytotoxicity (IC50)
Protocol: as §1, §2
UCLA P-3 Dr. D. Morton, University of California, […]

[7] = system: H-322 lung carcinoma cells; assay: Sulforhodamine B cytotoxicity, H-322; type: cell-based; details: Table 7, H-322
Protocol: as §1, §2

[8] = system: Capan-1 pancreatic carcinoma cells; assay: Sulforhodamine B cytotoxicity, Capan-1; type: cell-based
Protocol: as §1, §2

[9] = system: HL-60 promyeocytic leukemia cells; assay: Sulforhodamine B cytotoxicity, HL-60; type: cell-based
Protocol: as §1, §2

[10] = system: P-388 mouse lymphoma cells; assay: Sulforhodamine B cytotoxicity, P-388; type: cell-based; details: Table 7, P-388, read-out: Cytotoxicity (IC50)
Protocol: as §1, §2

[11] = system: CHO Chinese hamster ovary cells; assay: Sulforhodamine B cytotoxicity, CHO; type: cell-based; details: Table 7, CHO
Protocol: as §1, §2

[12] = system: MCF-7(ADR) breast carcinoma cells; assay: Sulforhodamine B cytotoxicity, MCF-7/ADR; type: cell-based; details: Homo sapiens, NCI/ADR-RES, Adriamycin resistant
Protocol: as §1, §2

[13] = system: 93 base-pair Sal I - Sph I double-stranded DNA fragment of pBR322; assay: DNase I footprinting of oligosaccharide glycosides; type: binding; details: 37° C., 30 minutes pre-incubation
Excerpt: Footprinting studies the O-methyl glycosides of saccharides A, an analog of C, F, G and H, Compounds A-1, C'-1, F-1, G-1 and H-1, respecitvely, as shown below, were designed to probe these questions.
The oligosaccharides A-1, C'-1, F-1, G-1 and H-1 were obtained by chemical synthesis following procedures similar to those discussed before. The 93 base-pair Sal I - Sph I double-stranded DNA fragment of pBR322 was obtained enzymatically and was [5-^32 P]-labeled on one strand. pBR322 DNA was cleaved at the unique Sal I site, dephosphorylated using calf intestine phosphatase, (5'-^32 P]-phosphorylated using T4 polynucletide kinase and [g-^32 P] ATP (4.5 ^m Ci/pmol) , and cleaved again at the unique Sph I site. These precursors generated a 93 base-pair double-stranded fragment, (5'-^32 P)-labeled at the Sal I end, which was purified by gel electrophosresis in a nondenaturing 10 percent polyacrylamide gel and subsequent column chromatography on Sephadex G-25. The oligosaccharides were pre-incubated with the DNA fragment at 37° C. for 30 minutes and DNase I was added to cleave the DNA and generate footprinting patterns by autoradiography.
The degree of protection against DNase I digestion offered by both the natural and unnatural stereoisomers was determined by comparing the amount of radioactivity in adjacent lanes along the electrophoresis gel. […]

[14] = 5.0 mM, pH 8.5 and 9.0, 48 hours, 37° C.
[15] = Homo sapiens, SK-MEL-28, SK-Mel-28, read-out: IC50
[16] = Homo sapiens, CAPAN-1, Capan-1, read-out: IC50
[17] = Homo sapiens, HL-60, HL-60, read-out: IC50
[18] = 10 mM, pH 8.5, 48 hours, 37° C.

SMILES: COc1ccc2c(c1)N(C(=O)Oc1ccccc1)[C@H]1C#C/C=C\C#C[C@]3(O)CCC[C@]14O[C@]243 (relative stereo) [Compound 41]
- DNA cleavage (φX174 Form I DNA; 2 mM, pH 5.0): also cleaved DNA
- IC50 (cancer cell lines): 20 µM
- chemical stability (Chemical stability): reasonable stability under neutral and basic conditions; also recorded: cyclized rapidly under acidic conditions

SMILES: CC(C)(COC(=O)N1c2ccccc2[C@@]23O[C@]24CCC[C@H]3C#C/C=C\C#C[C@H]14)S(=O)(=O)c1ccccc1 (relative stereo) [Compound 429]
- DNA cleavage (φX174 Form I DNA; [14]): no DNA cleaving ability
- IC50 ([1]; Homo sapiens, MOLT-4, Table 7, Molt-4, read-out: Cytotoxicity (IC50)): 100000 nM
- Cytotoxicity (IC50) ([2]; Table 7, NHDF): Non-Toxic
- IC50 (SK-Mel-28 melanoma cells; Homo sapiens, SK-MEL-28, Table 7, SK-Mel-28, read-out: Cytotoxicity (IC50)): < 100 µM
- IC50 ([3]; Homo sapiens, OVCAR-3, Table 7, Ovcar-3): 50 µM
- IC50 ([4]; Homo sapiens, HT-29, 72 h): 25 µM
- IC50 ([5]; Homo sapiens, MCF7, 72 h): 25 µM
- IC50 ([6]; Homo sapiens, UCLA P-3, Table 7, UCLA-P3): 50 µM
- IC50 ([7]; NCI-H322, read-out: Cytotoxicity (IC50)): 50 µM
- IC50 ([8]; Homo sapiens, CAPAN-1, Table 7, Capan-1, read-out: Cytotoxicity (IC50)): 50 µM
- IC50 ([9]; Homo sapiens, HL-60, Table 7, HL-60, read-out: Cytotoxicity (IC50)): 25000 nM
- IC50 ([10]; Mus musculus, P388): 13 µM
- Cytotoxicity (IC50) [11]: Non-Toxic

SMILES: O=C(OCCS(=O)(=O)c1ccccc1)N1c2ccccc2[C@@]23O[C@]24CCC[C@H]3C#C/C=C\C#C[C@H]14 [(+)-45]
- DNA cleavage potency (φX174 Form I DNA): comparable potencies
- IC50 (SK-Mel-28 melanoma cells; [15]): 6.3 µM
- IC50 [12]: 780 nM
- IC50 [8, 16]: 0.39 µM
- IC50 [9, 17]: > 98 nM

SMILES: O=C(OCCS(=O)(=O)c1ccccc1)N1c2ccccc2[C@]23O[C@@]24CCC[C@@H]3C#C/C=C\C#C[C@@H]14 [(-)-45]
- DNA cleavage potency (φX174 Form I DNA): comparable potencies
- IC50 ([1]; Homo sapiens, MOLT-4, Molt-4 leukemia cell line, read-out: IC50): 100 nM
- IC50 (SK-Mel-28 melanoma cells; [15]): 6.3 µM
- IC50 [12]: 1600 nM
- IC50 [8, 16]: 1.6 µM
- IC50 [9, 17]: 780 nM

SMILES: N.N.[Cl][Pt][Cl] [Cis-Platin]
- IC50 ([2]; control drugs): 50 µM

SMILES: COC12C#C/C=C\C#CC3NC4=CC(=O)C=CC45OC15C3(O)CCC2 (stereo not shown) [Compound 58]
- DNA cleavage (φX174 Form I DNA; 5 mM, pH 8.0, 24 hours): diminished activity against DNA
- chemical stability (Chemical stability): stable molecules

SMILES: COC12C#C/C=C\C#CC3N(C(=O)Oc4ccccc4)C4=CC(=O)C=CC45OC15C3(O)CCC2 (stereo not shown) [Compound 62]
- DNA cleavage (φX174 Form I DNA; 5 mM, pH 8.0, 24 hours): diminished activity against DNA
- chemical stability (Chemical stability): stable molecules

SMILES: OC12CCCC3C#Cc4ccccc4C#CC1Nc1ccccc1C32O (stereo not shown) [Compound 76b]
- DNA cleavage (φX174 Form I DNA; [18]): converted supercoiled .phi.X174 form I DNA
- chemical stability (Chemical stability): cyclized spontaneously at 25 °C in the presence of 1,4-cyclohexadiene

SMILES: OC12CCCC3C#Cc4cc5ccccc5cc4C#CC1Nc1ccccc1C32O (stereo not shown) [Compound 87b]
- DNA cleavage (φX174 Form I DNA; [18]): converted supercoiled .phi.X174 form I DNA
- chemical stability (Chemical stability): stable in the presence of 1,4-cyclohexadiene, but cycloaromatized at elevated temperature (65° C., two hours)

SMILES: CC(COC(=O)N1c2ccccc2C23OC24CCCC3C#CC=CC#CC14)S(=O)(=O)c1ccccc1 (stereo not shown) [Compound 428]
- DNA cleavage (φX174 Form I DNA; [14]): greatly reduced in vitro DNA cleaving ability
- IC50 ([1]; Table 7, Molt-4, read-out: Cytotoxicity (IC50)): 1000 nM
- CC50 ([2]; Table 7, NHDF, read-out: Cytotoxicity (IC50)): < 100 µM
- IC50 (SK-Mel-28 melanoma cells; Table 7, SK-Mel-28, read-out: Cytotoxicity (IC50)): < 100 µM
- IC50 ([3]; Table 7, Ovcar-3): 13 µM
- IC50 ([4]; 4320 min): 13 µM
- IC50 ([5]; 4320 min): < 100 µM
- IC50 ([6]; Table 7, UCLA-P3): 13 µM
- Cytotoxicity (IC50) [7]: Non-Toxic
- IC50 ([8]; Table 7, Capan-1, read-out: Cytotoxicity (IC50)): 6.3 µM
- IC50 ([9]; Table 7, HL-60, read-out: Cytotoxicity (IC50)): 1600 nM
- IC50 [10]: 1.6 µM
- CC50 ([11]; read-out: Cytotoxicity (IC50)): < 100 µM

SMILES: CCNC1COC(OC2C(OC)OC(C)C(NOC3CC(O)C(SC(=O)c4c(C)c(I)c(OC5OC(C)C(O)C(OC)C5O)c(OC)c4OC)C(C)O3)C2O)CC1OC (stereo not shown) [Compound F-1]
- protection of DNA against DNase I [13]: concentration-dependent protection

SMILES: CCNC1COC(OC2C(OC)OC(C)C(NOC3CC(O)C(SC(=O)c4c(C)c(I)c(OC5OC(C)C(O)C(OC)C5O)c(OC)c4OC)C(C)O3)C2O)CC1OC (stereo not shown) [Compound G-1]
- protection of DNA against DNase I [13]: no protection at the same concentrations

SMILES: COC1=C(C(=O)O)[C@H](C)[C@@]23O[C@]24c2cc(O)c5c(c2N[C@H]3C#C/C=C\C#C[C@H]14)C(=O)c1c(O)ccc(O)c1C5=O [Dynemicin A]
- IC50 ([2]; Homo sapiens, control drugs): 0.01 µM

SMILES: N[C@@H](Cc1ccc(N(CCCl)CCCl)cc1)C(=O)O [Melphelan]
- IC50 ([2]; Homo sapiens): 100 µM

SMILES: CN(Cc1cnc2nc(N)nc(N)c2n1)c1ccc(C(=O)N[C@@H](CCC(=O)O)C(=O)O)cc1 [Methotrexate]
- IC50 ([2]; Homo sapiens, control drugs): 50 µM

SMILES: CC(=O)O[C@H]1C(=O)[C@@]2(C)[C@H]([C@H](OC(=O)c3ccccc3)[C@]3(O)C[C@H](OC(=O)[C@H](O)[C@@H](NC(=O)c4ccccc4)c4ccccc4)C(C)=C1C3(C)C)[C@]1(OC(C)=O)CO[C@@H]1C[C@@H]2O [Taxol]
- IC50 ([2]; Homo sapiens, control drugs): 0.01 µM

From patent US5281710A, “Dynemicin analogs: synthesis, methods of preparation and use” (The Scripps Research Institute, priority 1992, dated 1994)
